Where two headings read alike, the source gives them in different places.
Legend:
Human Full Length PARG = Human Full Length PARG (Homo sapiens (Human), UniProt Q86W56); experiment: PARG enzyme assay (TR-FRET); type: biochemical
PARG in HeLa cell line = experiment: PARG cell assay (PAR chain immunofluorescence after MMS); type: cell-based; conditions: HeLa cells
Method: This method is based on the detection of endogenous levels of poly (ADP) ribose chains present in the nucleus of HeLa cell line using indirect immunofluorescence. MMS stimulation increases PAR chains for up to 25 mins. After that point, PARG is active and breaks down the PAR chains, until by one hour after stimulation no PAR chains are detectable. Inhibition of PARG maintains PAR chains.
Briefly, following compound treatment and treatment with the DNA damaging agent methylmethanesulfonate (MMS), the cell monolayer is fixed, then permeabilised and incubated with a mouse monoclonal antibody raised against multimers of poly(ADP) ribose.
At the end of the 1 h dosing period, MMS was added to duplicates at a final concentration of 50 μg/mL, for a further hour.
Media was tipped off and the cells fixed with 50 μL ice-cold 95% MetOH/PBS for 15 mins at −20° C. Following a PBS wash, 50 μL PBS/0.1% Triton was added to the cells for 20 mins. Following another PBS wash, anti-PAR antibody (Calbiochem AM80) was diluted 1:4000 in a buffer (PBS+0.5% FBS+0.05% Tween20) and added to the cells and incubated overnight at 4° C.
Cells were washed three times with PBS and the plate sealed with a light-proof seal.

[1] = Homo sapiens, MMS treatment, read-out: PARG Cell IC50
[2] = MMS treatment, read-out: PARG Cell IC50
[3] = read-out: PARG Biochem IC50 Geomean
[4] = Homo sapiens, MMS 50 μg/mL, read-out: PARG Cell IC50 Geomean

Human Full Length PARG, sequence (Q86W56 whole entry): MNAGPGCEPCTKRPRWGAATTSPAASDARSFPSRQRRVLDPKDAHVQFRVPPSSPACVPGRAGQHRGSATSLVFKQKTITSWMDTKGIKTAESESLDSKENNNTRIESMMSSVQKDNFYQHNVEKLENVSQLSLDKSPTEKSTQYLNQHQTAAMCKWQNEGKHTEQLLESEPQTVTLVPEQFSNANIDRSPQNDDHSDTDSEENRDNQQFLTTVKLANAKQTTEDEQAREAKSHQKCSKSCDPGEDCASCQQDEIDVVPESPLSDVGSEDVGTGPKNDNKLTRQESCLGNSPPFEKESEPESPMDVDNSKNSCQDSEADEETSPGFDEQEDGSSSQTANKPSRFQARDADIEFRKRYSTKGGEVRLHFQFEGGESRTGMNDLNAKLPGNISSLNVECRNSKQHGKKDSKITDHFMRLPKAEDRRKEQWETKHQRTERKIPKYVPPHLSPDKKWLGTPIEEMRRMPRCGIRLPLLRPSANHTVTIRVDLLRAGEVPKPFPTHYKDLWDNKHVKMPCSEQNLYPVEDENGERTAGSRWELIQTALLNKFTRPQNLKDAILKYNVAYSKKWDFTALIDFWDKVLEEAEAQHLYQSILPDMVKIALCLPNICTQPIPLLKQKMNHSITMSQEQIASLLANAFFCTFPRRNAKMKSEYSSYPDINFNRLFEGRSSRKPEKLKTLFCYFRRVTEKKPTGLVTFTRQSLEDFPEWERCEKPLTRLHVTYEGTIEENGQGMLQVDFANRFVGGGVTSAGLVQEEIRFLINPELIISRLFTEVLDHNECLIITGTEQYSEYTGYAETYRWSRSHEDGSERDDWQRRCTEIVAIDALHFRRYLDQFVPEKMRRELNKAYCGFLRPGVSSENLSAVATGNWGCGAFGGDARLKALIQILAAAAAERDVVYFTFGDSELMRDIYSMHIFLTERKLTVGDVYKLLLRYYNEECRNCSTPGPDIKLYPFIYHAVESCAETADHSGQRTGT

Row | IC50 (Human Full Length PARG; read-out: PARG Biochem IC50) | IC50 (PARG in HeLa cell line; [1]) | IC50 (Human Full Length PARG; [3]) | IC50 (PARG in HeLa cell line; [4]) | SMILES | further results
1 | 113 nM | 227 nM | – | – | Cc1cc(Cn2c(=O)n(Cc3cnn(C)c3)c(=O)c3cc(S(=O)(=O)NC4(CF)CC4)ccc32)ccn1 [Example 541, N-[1-(Fluoromethyl)cyclopropyl]-3-[(1-methylpyrazol-4-yl)methyl]-1-[(2-methyl-4-pyridyl)methyl]-2,4-dioxo-quinazoline-6-sulfonamide] | –
2 | 162 nM | – | – | – | Cn1cc(Cn2c(=O)c3cc(S(=O)(=O)NC4(CF)CC4)ccc3n(Cc3cccc(C#N)n3)c2=O)cn1 [Example 538, 1-[(6-Cyano-2-pyridyl)methyl]-N-[1-(fluoromethyl)cyclopropyl]-3-[(1-methylpyrazol-4-yl)methyl]-2,4-dioxo-quinazoline-6-sulfonamide] | IC50 (PARG in HeLa cell line; [2]): 393 nM
3 | 88 nM | 1570 nM | – | – | Cn1cc(Cn2c(=O)c3cc(S(=O)(=O)NC4(CF)CC4)ccc3n(Cc3c[nH]cn3)c2=O)cn1 [Example 575, N-[1-(Fluoromethyl)cyclopropyl]-1-(1H-imidazol-4-ylmethyl)-3-[(1-methylpyrazol-4-yl)methyl]-2,4-dioxo-quinazoline-6-sulfonamide] | –
4 | – | – | 49 nM | 103 nM | Cn1cc(Cn2c(=O)c3cc(S(=O)(=O)NC4(C)CC4)ccc3n(Cc3ccc(F)cc3)c2=O)cn1 [Example 171] | –
5 | – | – | 190 nM | 224 nM | Cc1nc(C)c(Cn2c(=O)n(C)c(=O)c3cc(S(=O)(=O)NC4CC4)ccc32)s1 [Example 201] | –
6 | 23 nM | 165 nM | – | – | Cc1cc(Cn2c(=O)n(Cc3cnn(C)c3)c(=O)c3cc(S(=O)(=O)NC4(CF)CC4)ccc32)n(C)n1 [Example 437, 1-[(2,5-Dimethylpyrazol-3-yl)methyl]-N-[1-(fluoromethyl)cyclopropyl]-3-[(1-methylpyrazol-4-yl)methyl]-2,4-dioxo-quinazoline-6-sulfonamide] | –
7 | 113 nM | 249 nM | – | – | CCN(CC)CCn1c(=O)n(Cc2cnn(C)c2)c(=O)c2cc(S(=O)(=O)NC3(CF)CC3)ccc21 [Example 611, 1-[2-(Diethylamino)ethyl]-N-[1-(fluoromethyl)cyclopropyl]-3-[(1-methylpyrazol-4-yl)methyl]-2,4-dioxo-quinazoline-6-sulfonamide] | –
8 | – | – | 6 nM | 20 nM | Cc1nc(C)c(Cn2c(=O)n(Cc3cnn(C)c3)c(=O)c3cc(S(=O)(=O)NC4(C)CC4)ccc32)s1 [Example 170] | –
9 | – | – | 70 nM | 85 nM | CC(C)Cn1c(=O)n(Cc2cnn(C)c2)c(=O)c2cc(S(=O)(=O)NC3(C)CC3)ccc21 [Example 295] | –
10 | 112 nM | 923 nM | – | – | Cc1cc(Cn2c(=O)c3cc(S(=O)(=O)NC4(CF)CC4)ccc3n(CC3COC3)c2=O)on1 [Example 522, N-[1-(Fluoromethyl)cyclopropyl]-3-[(3-methylisoxazol-5-yl)methyl]-1-(oxetan-3-ylmethyl)-2,4-dioxo-quinazoline-6-sulfonamide] | –
11 | 274 nM | – | – | – | CC[C@H](C)Cn1c(=O)n(Cc2cc(C)no2)c(=O)c2cc(S(=O)(=O)NC3(C)CC3)ccc21 [Example 466, 1-[(2S)-2-Methylbutyl]-N-(1-methylcyclopropyl)-3-[(3-methylisoxazol-5-yl)methyl]-2,4-dioxo-quinazoline-6-sulfonamide] | IC50 (PARG in HeLa cell line; [2]): 232 nM
12 | 202 nM | 280 nM | – | – | Cc1cc(Cn2c(=O)c3cc(S(=O)(=O)NC4(C)CC4)ccc3n(CC(C)(C)C#N)c2=O)on1 [Example 452, 1-(2-Cyano-2-methyl-propyl)-N-(1-methylcyclopropyl)-3-[(3-methylisoxazol-5-yl)methyl]-2,4-dioxo-quinazoline-6-sulfonamide] | –
13 | 486 nM | – | – | – | C#CC1(NS(=O)(=O)c2ccc3c(c2)c(=O)n(Cc2cnn(C)c2)c(=O)n3CC2CC2)CC1 [Example 432, 1-(Cyclopropylmethyl)-N-(1-ethynylcyclopropyl)-3-[(1-methylpyrazol-4-yl)methyl]-2,4-dioxo-quinazoline-6-sulfonamide] | IC50 (PARG in HeLa cell line; [2]): 261 nM
14 | 247 nM | – | – | – | COCCOCCn1c(=O)n(Cc2cnn(C)c2)c(=O)c2cc(S(=O)(=O)NC3(CF)CC3)ccc21 [Example 618, N-[1-(Fluoromethyl)cyclopropyl]-1-[2-(2-methoxyethoxy)ethyl]-3-[(1-methylpyrazol-4-yl)methyl]-2,4-dioxo-quinazoline-6-sulfonamide] | IC50 (PARG in HeLa cell line; [2]): 325 nM
15 | 191 nM | 147 nM | – | – | CCCn1c(=O)n(Cc2cc(C)no2)c(=O)c2cc(S(=O)(=O)NC3(CF)CC3)ccc21 [Example 535, N-[1-(Fluoromethyl)cyclopropyl]-3-[(3-methylisoxazol-5-yl)methyl]-2,4-dioxo-1-propyl-quinazoline-6-sulfonamide] | –
16 | 30 nM | 32 nM | – | – | Cc1cc(Cn2c(=O)n(Cc3cnn(C)c3)c(=O)c3cc(S(=O)(=O)NC4(CF)CC4)ccc32)sn1 [Example 591, N-[1-(Fluoromethyl)cyclopropyl]-1-[(3-methylisothiazol-5-yl)methyl]-3-[(1-methylpyrazol-4-yl)methyl]-2,4-dioxo-quinazoline-6-sulfonamide] | –

Row | IC50 (Human Full Length PARG; read-out: PARG Biochem IC50) | IC50 (PARG in HeLa cell line; [1]) | IC50 (Human Full Length PARG; [3]) | IC50 (PARG in HeLa cell line; [4]) | SMILES | further results
17 | – | – | 469 nM | 431 nM | Cc1cc(Cn2c(=O)c3cc(S(=O)(=O)NC4(C)CC4)ccc3n(CCN(C)C)c2=O)on1 [Example 246] | –
18 | 7000 nM | 2840 nM | – | – | Cn1c(=O)n(CC2COC2)c(=O)c2cc(S(=O)(=O)NC3(C)CC3)ccc21 [Example 481, 1-Methyl-N-(1-methylcyclopropyl)-3-(oxetan-3-ylmethyl)-2,4-dioxo-quinazoline-6-sulfonamide] | –
19 | 5910 nM | 609 nM | – | – | Cn1c(=O)n(Cc2cnn3ccccc23)c(=O)c2cc(S(=O)(=O)NC3(C)CC3)ccc21 [Example 434, 1-Methyl-N-(1-methylcyclopropyl)-2,4-dioxo-3-(pyrazolo[1,5-a]pyridin-3-ylmethyl)quinazoline-6-sulfonamide] | –
20 | – | – | 463 nM | 520 nM | Cn1cc(Cn2c(=O)n(C)c(=O)c3cc(S(=O)(=O)NC4(C)CC4)ccc32)cn1 [Example 152] | –
21 | 189 nM | 181 nM | – | – | Cc1ccc(Cn2c(=O)n(Cc3cnn(C)c3)c(=O)c3cc(S(=O)(=O)NC4(CF)CC4)ccc32)nc1 [Example 537, N-[1-(Fluoromethyl)cyclopropyl]-3-[(1-methylpyrazol-4-yl)methyl]-1-[(5-methyl-2-pyridyl)methyl]-2,4-dioxo-quinazoline-6-sulfonamide] | –
22 | 424 nM | – | – | – | COC(=O)c1cc(S(=O)(=O)NC2(C)CC2)cc2c(=O)n(Cc3cnn(C)c3)c(=O)[nH]c12 [Example 448, Methyl 6-[(1-methylcyclopropyl)sulfamoyl]-3-[(1-methylpyrazol-4-yl)methyl]-2,4-dioxo-1H-quinazoline-8-carboxylate] | IC50 (PARG in HeLa cell line; [2]): 329 nM
23 | – | – | 417 nM | 736 nM | CC(=O)Cn1c(=O)n(Cc2cc(C)no2)c(=O)c2cc(S(=O)(=O)NC3(C)CC3)ccc21 [Example 323] | –
24 | 300 nM | 11400 nM | – | – | Cc1n[nH]c(Cn2c(=O)n(Cc3cnn(C)c3)c(=O)c3cc(S(=O)(=O)NC4(CF)CC4)ccc32)n1 [Example 592, N-[1-(Fluoromethyl)cyclopropyl]-3-[(1-methylpyrazol-4-yl)methyl]-1-[(3-methyl-1H-1,2,4-triazol-5-yl)methyl]-2,4-dioxo-quinazoline-6-sulfonamide] | –
25 | 223 nM | 13000 nM | – | – | Cn1cc(Cn2c(=O)[nH]c3c(C(N)=O)cc(S(=O)(=O)NC4(C)CC4)cc3c2=O)cn1 [Example 424, 6-[(1-Methylcyclopropyl)sulfamoyl]-3-[(1-methylpyrazol-4-yl)methyl]-2,4-dioxo-1H-quinazoline-8-carboxamide] | –
26 | – | – | 35 nM | 77 nM | Cc1cc(Cn2c(=O)n(Cc3cnn(C)c3)c(=O)c3cc(S(=O)(=O)NC4(C)CC4)ccc32)on1 [Example 379] | –
27 | – | – | 352 nM | 319 nM | Cc1cc(Cn2nc(CC3CC3)c3ccc(S(=O)(=O)NC4(C)CC4)cc3c2=O)on1 [Example 318] | –
28 | 8970 nM | > 30000 nM | – | – | CC1(NS(=O)(=O)c2ccc3[nH]c(=O)c(Br)cc3c2)CC1 [Example 487, 3-Bromo-N-(1-methylcyclopropyl)-2-oxo-1H-quinoline-6-sulfonamide] | –
29 | – | – | 340 nM | – | Cc1cc(Cn2c(=O)c3cc(S(=O)(=O)NC4(C)CC4)ccc3n(CC3COC3)c2=O)on1 [Example 305] | IC50 (PARG in HeLa cell line; MMS 50 μg/mL, read-out: PARG Cell IC50 Geomean): 323 nM
30 | 42 nM | 494 nM | – | – | Cc1ncc(Cn2c(=O)c3cc(S(=O)(=O)NC4(C#N)CC4)ccc3n(Cc3cnn(C)c3)c2=O)s1 [Example 457, N-(1-Cyanocyclopropyl)-1-[(1-methylpyrazol-4-yl)methyl]-3-[(2-methylthiazol-5-yl)methyl]-2,4-dioxo-quinazoline-6-sulfonamide] | –
31 | 1260 nM | 1100 nM | – | – | Cn1c(=O)n(Cc2cnsc2)c(=O)c2cc(S(=O)(=O)NC3(CF)CC3)ccc21 [Example 494, N-[1-(Fluoromethyl)cyclopropyl]-3-(isothiazol-4-ylmethyl)-1-methyl-2,4-dioxo-quinazoline-6-sulfonamide] | –
32 | – | – | 616 nM | 386 nM | Cc1noc(C)c1Cn1c(=O)c2cc(S(=O)(=O)NC3(C)CC3)ccc2n(C)c1=O [Example 115] | –
